Laboratory results reported in patent publication US20100022483A1, “Substituted Tetracycline Compounds” (Paratek Pharmaceuticals, Inc., priority 2008, published 2010).
≈ marks a conversion by molar mass, not a printed value. Read-outs that look alike come from different tables or passages of the source.

Key:
in vitro = format: cell-based; conditions: Chinese hamster, Cytotox. CHO-K1
gram positive bacteria = experiment: In vitro anti-bacterial activity assay (broth dilution MIC), gram positive bacteria; format: cell-based, S. aureus; conditions: 18 h
Summary of the method: (§1)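 Broth dilution MIC following CLSI M7-A2: compounds serially diluted, log-phase test strains added to final ~5×10^5 CFU/ml, incubated ~18 hours at 35° C in ambient air. Plates read on microplate reader or visually; MIC is lowest concentration inhibiting growth.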

gram negative bacteria = experiment: In vitro anti-bacterial activity assay (broth dilution MIC), gram negative bacteria; format: cell-based, E. coli
Summary of the method: as §1

[1] = Mammalian cytotoxicity assay (resazurin), COS-1 cells; format: cell-based; conditions: African green monkey, read-out: Cytotox. COS-1
Summary of the method: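 Resazurin read-out (0.042 mg/ml, 2 h at 37° C. then 30 min dark, room temperature; fluorescence 535/590 nm) follows 24-hour compound exposure of overnight-seeded cells, serially diluted. IC50 is the concentration giving 50% growth inhibition.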

3T3 fibroblast cells = experiment: In vitro phototoxicity assay (neutral red; UV light-treated vs dark control plates); format: cell-based; conditions: for Photo Toxicity UV Tox50: UV light 50 minutes; for Photo Toxicity Dark Tox50: dark control plate
Summary of the method: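 Neutral red viability readout (A535 after EtOH/acetic acid extraction) compares paired plates: one exposed 50 min to UV at 1.6–1.8 mW/cm^2, one held in darkness, both dosed with compound in HBSS and recovered overnight. 3T3 fibroblast cells used; phototoxicity taken as the difference.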

[2] = Staphylococcus aureus, S. aureus MRSA5, read-out: Median MIC's G+ S. aureus MRSA5
[3] = Staphylococcus aureus, S. aureus RN450, read-out: Median MIC's G+ S. aureus RN450
[4] = Streptococcus pneumoniae, S. pneumoniae 157E-Strep, read-out: Median MIC's G+ S. pneumoniae 157E-Strep
[5] = Escherichia coli, 18 h, E. coli D1 209, read-out: Median MIC's G− E. coli D1 209
[6] = Escherichia coli, 18 h, E. coli MG 1655, read-out: Median MIC's G− E. coli MG 1655
[7] = Escherichia coli, ATCC25922, 18 h, E. coli ATCC 25922, read-out: Median MIC's G− E. coli ATCC 25922
[8] = Pseudomonas aeruginosa, 18 h, P. aeruginosa K201 PAO6609, read-out: Median MIC's G− P. aeruginosa K201 PAO6609

Row | Compound | IC50 at 24 h (in vitro) | MIC (gram positive bacteria; [2]) | MIC (gram positive bacteria; [3]) | MIC (gram positive bacteria; [4]) | MIC (gram negative bacteria; [5]) | MIC (gram negative bacteria; [6]) | MIC (gram negative bacteria; [7]) | MIC (gram negative bacteria; [8]) | IC50 at 24 h [1] | Photo Toxicity UV Tox50 (3T3 fibroblast cells) | Photo Toxicity Dark Tox50 (3T3 fibroblast cells)
1 | CN(C)[C@@H]1C(O)=C(C(N)=O)C(=O)[C@@]2(O)C(O)=C3C(=O)c4c(O)ccc(C(=O)CNCc5cccn5C)c4C[C@H]3C[C@@H]12 [CE] | > 41.4 µM | 4 µg/mL (≈ 7.08 µM) | 0.25 µg/mL (≈ 0.443 µM) | 0.5 µg/mL (≈ 0.886 µM) | 64 µg/mL (≈ 113 µM) | 4 µg/mL (≈ 7.08 µM) | 4 µg/mL (≈ 7.08 µM) | 64 µg/mL (≈ 113 µM) | > 41.4 µM | >133.53 µM | >133.53 µM
2 | CN(C)[C@@H]1C(O)=C(C(N)=O)C(=O)[C@@]2(O)C(O)=C3C(=O)c4c(O)ccc(C(=O)Cn5ccnc5)c4C[C@H]3C[C@@H]12 [CF] | > 49.9 µM | 64 µg/mL (≈ 122 µM) | 4 µg/mL (≈ 7.66 µM) | 4 µg/mL (≈ 7.66 µM) | 64 µg/mL (≈ 122 µM) | 64 µg/mL (≈ 122 µM) | 64 µg/mL (≈ 122 µM) | 64 µg/mL (≈ 122 µM) | > 49.9 µM | >161.01 µM | >161.01 µM
3 | CC(=O)NCCC(=O)c1ccc(O)c2c1C[C@H]1C[C@H]3[C@H](N(C)C)C(O)=C(C(N)=O)C(=O)[C@@]3(O)C(O)=C1C2=O [CI] | > 160 µM | 64 µg/mL (≈ 121 µM) | 2 µg/mL (≈ 3.79 µM) | 2 µg/mL (≈ 3.79 µM) | 64 µg/mL (≈ 121 µM) | 64 µg/mL (≈ 121 µM) | 64 µg/mL (≈ 121 µM) | 64 µg/mL (≈ 121 µM) | > 160 µM | >159.57 µM | >159.57 µM
4 | CN(C)CC/C(=N\OC(C)(C)C)c1ccc(O)c2c1C[C@H]1C[C@H]3[C@H](N(C)C)C(O)=C(C(N)=O)C(=O)[C@@]3(O)C(O)=C1C2=O [CJ] | 34.6 µM | 2 µg/mL (≈ 3.42 µM) | 0.06 µg/mL (≈ 0.103 µM) | 0.06 µg/mL (≈ 0.103 µM) | 1 µg/mL (≈ 1.71 µM) | 2 µg/mL (≈ 3.42 µM) | 0.5 µg/mL (≈ 0.855 µM) | 64 µg/mL (≈ 109 µM) | 82.2 µM | 62.89 µM | >136.86 µM
5 | CN(C)[C@@H]1C(O)=C(C(N)=O)C(=O)[C@@]2(O)C(O)=C3C(=O)c4c(O)ccc(-c5cccc(C(=O)NCCO)c5)c4C[C@H]3C[C@@H]12 [CK] | > 14.7 µM | 8 µg/mL (≈ 13.9 µM) | 0.125 µg/mL (≈ 0.216 µM) | 0.125 µg/mL (≈ 0.216 µM) | 64 µg/mL (≈ 111 µM) | 64 µg/mL (≈ 111 µM) | 64 µg/mL (≈ 111 µM) | 64 µg/mL (≈ 111 µM) | > 14.7 µM | >146.56 µM | >146.58 µM
6 | CN(C)CCCCNC(=O)c1cccc(-c2ccc(O)c3c2C[C@H]2C[C@H]4[C@H](N(C)C)C(O)=C(C(N)=O)C(=O)[C@@]4(O)C(O)=C2C3=O)c1 [CL] | > 41.7 µM | 64 µg/mL (≈ 101 µM) | 4 µg/mL (≈ 6.32 µM) | 4 µg/mL (≈ 6.32 µM) | 64 µg/mL (≈ 101 µM) | 64 µg/mL (≈ 101 µM) | 64 µg/mL (≈ 101 µM) | 64 µg/mL (≈ 101 µM) | > 41.7 µM | >134.63 µM | >134.63 µM
7 | CN(C)[C@@H]1C(O)=C(C(N)=O)C(=O)[C@@]2(O)C(O)=C3C(=O)c4c(O)ccc(-c5cccc(CCCO)c5)c4C[C@H]3C[C@@H]12 [CM] | 14.1 µM | 0.5 µg/mL (≈ 0.911 µM) | 0.0625 µg/mL (≈ 0.114 µM) | 0.06 µg/mL (≈ 0.109 µM) | 64 µg/mL (≈ 117 µM) | 64 µg/mL (≈ 117 µM) | 64 µg/mL (≈ 117 µM) | 64 µg/mL (≈ 117 µM) | 15.1 µM | >167.5 µM | >167.5 µM
8 | CN(C)CCCCNCc1ccc(O)c2c1C[C@H]1C[C@H]3[C@H](N(C)C)C(O)=C(C(N)=O)C(=O)[C@@]3(O)C(O)=C1C2=O [CN, (4S,4aS,5aR,12aS)-4-Dimethylamino-7-[(4-dimethylamino-butylamino)-methyl]-3,10,12,12a-tetrahydroxy-1,11-dioxo-1,4,4a,5,5a,6,11,12a-octahydro-naphthacene-2-carboxylic acid amide] | > 138 µM | 64 µg/mL (≈ 118 µM) | 16 µg/mL (≈ 29.5 µM) | 32 µg/mL (≈ 59 µM) | 64 µg/mL (≈ 118 µM) | 32 µg/mL (≈ 59 µM) | 32 µg/mL (≈ 59 µM) | 64 µg/mL (≈ 118 µM) | > 138 µM | >138.03 µM | >138.03 µM
9 | CN(C)[C@@H]1C(O)=C(C(N)=O)C(=O)[C@@]2(O)C(O)=C3C(=O)c4c(O)ccc(-c5cccc(/C=C/C#N)c5)c4C[C@H]3C[C@@H]12 [CO] | 9.41 µM | 0.5 µg/mL (≈ 0.923 µM) | 0.0625 µg/mL (≈ 0.115 µM) | 0.06 µg/mL (≈ 0.111 µM) | 64 µg/mL (≈ 118 µM) | 64 µg/mL (≈ 118 µM) | 64 µg/mL (≈ 118 µM) | 64 µg/mL (≈ 118 µM) | 7.77 µM | >164.35 µM | >164.35 µM
